Results taken from PubChem BioAssay AID1963447 (Molecular Pharmacology Branch, DTP, NCI, 2024).

Test system: 885512-296-R-J2-PDC complex spheroid growth, % test/control
Assay: Anticancer human tumor 885512-296-R-J2-PDC patient-derived breast carcinoma cell line growth inhibition [Asc]
Conditions: for IC50: curve of first compound; for viability, T/C: stronger effect = lower value; active = viability on the fitted dose curve at most 10% of control; inactive = the rest
Procedure: Multicellular complex tumor spheroid response to apoptosis pathway targeting inhibitors Alrizomadlin, Pelcitoclax, and Dasminapant in combination with a variety of drugs and investigational agents in selected tumor cell lines
The MDM2 inhibitor alrizomadlin, the Bcl-2/Bcl-xL inhibitor pelcitoclax, and the IAPs inhibitor dasminapant were evaluated both individually and in combination with standard of care and investigational anticancer small molecules within a complex spheroid model of solid tumors. . Complex spheroids include a stromal component modeled by human endothelial cells (HUVEC) and fibroblasts modeled by human mesenchymal stem cells (MSCs). The concentration ranges selected for each drug and investigational agent were based upon clinically achievable concentrations if the clinical Cmax of the agent was known.
Compounds. The drugs and investigational agents: alrizomadlin (APG-115; NSC831270), pelcitoclax (APG-1252; NSC835773), dasminapant (APG-1387;NSC834197), TAK-243 (NSC785004), copanlisib (NSC809693), olaparib (NSC753686), talazoparib (NSC767125), cobimetinib (NSC 768068), eltanexor (KPT-8602, NSC 794443), abemaciclib (NSC 768073), sotorasib (NSC818433), adagrasib (NSC 831453), MRTX-1133 (NSC 836407), Iadademestat (ORY1001, NSC 806812), and RMC-4630 (NSC839698), were obtained from the NCI Developmental Therapeutics Program Chemical Repository. The FDA-approved anticancer drug set is available from the Developmental Therapeutics Program at https://dtp.cancer.gov/organization/dscb/obtaining/available plates.htm. […] The stock solutions were prepared in dimethyl sulfoxide (DMSO, Sigma-Aldrich, St. Louis, MO, cat. D2650) at 800-fold the tested concentration and stored at -70 degrees C prior to their use. All drugs and investigational agents were tested over a range starting from a high concentration at or near the clinical Cmax and decreasing in half-log increments. If the clinical Cmax for an agent had not been determined, the highest concentration tested was 10 microM.
The patient-derived cancer (PDC) cell lines include five colon adenocarcinomas: 186277-243-T-J2-PDC, 616215-338-R-J1-PDC, 439559-082-T-J2-PDC, 463943-066-T-J2-PDC, and 519858-162-T-J1-PDC; three pancreatic carcinomas: 323965-272-R-J2-PDC, 521955-158-R6-J3-PDC, and 521955-158-R2-J5-PDC; two uterine sarcomas: 327498-152-R-J2-PDC and 993429-296-R-J1-PDC; two rhabdomyosarcomas: 755483-174-R-J1-PDC and 772245-204-R-J1-PDC; two soft tissue sarcomas: 126254-015-R-J1-PDC and 494315-158-R-J1-PDC; two malignant fibrous histiocytomas: 317291-083-R-J1-PDC and 596521-263-R-J1-PDC; two breast carcinomas: 171881-019-R-J1-PDC and 885512-296-R-J2-PDC; and one ovarian carcinoma: 6556581-035-R-J-PDC were obtained from the NCI PDMR, (https://pdmr.cancer.gov). The established cell lines HSSY-2 synovial sarcoma (RRID:CVCL 8719), SYO-1 synovial sarcoma (RRID:CVCL_7146), MPNST malignant peripheral neural sheath tumor were obtained from the Sloan Kettering Institute. The following established cell lines were purchased from the American Type Culture Collection (ATCC, Manassas, VA), Sor the received from the NCI repository:, PANC-1 pancreatic carcinoma (CRL-1469, RRID:CVCL_0480), OVCAR-5 ovarian carcinoma (RRID:CVCL_1628), OVCAR-8 ovarian carcinoma (RRID:CVCL_1629), , MCF-7 breast carcinoma (CRL-12584, RRID:CVCL_0031), MDA-MB-231 breast carcinoma (CRL-12532, RRID:CVCL_0062), NCI-H1876 small cell lung carcinoma (CRL-5902, RRID:CVCL_1503), NCI-H510A small cell lung carcinoma (HTB-184, RRID:CVCL_1565), NCI-H1417 (CRL-5869, RRID:CVCL_1469), and NCI-H196 small cell lung carcinoma (CRL-5823, RRID:CVCL_1509). Dr. Peter Houghton (Greehey Children's Cancer Research Institute, University of Texas Health Science Center, San Antonio, TX) provided Rh-18 rhabdomyosarcoma (RRID:CVCL_1659). Pooled donor human umbilical vein endothelial cells (HUVEC, Lonza, cat. CC-2519) and human mesenchymal stem cells (hMSC, Lonza, cat. PT-2501) were purchased from Lonza (Walkersville, MD).
Cell Culture. […]

[1] = second compound 0.03 µM, first compound 0.00316 µM
[2] = second compound 0.03 µM, first compound 0.01 µM
[3] = second compound 0.03 µM, first compound 0.0316 µM
[4] = second compound 0.03 µM, first compound 0.1 µM
[5] = second compound 0.0949 µM, first compound 0.00316 µM
[6] = second compound 0.0949 µM, first compound 0.01 µM
[7] = second compound 0.0949 µM, first compound 0.0316 µM
[8] = second compound 0.0949 µM, first compound 0.1 µM
[9] = second compound 0.3 µM, first compound 0.00316 µM
[10] = second compound 0.3 µM, first compound 0.01 µM
[11] = second compound 0.3 µM, first compound 0.0316 µM
[12] = second compound 0.3 µM, first compound 0.1 µM
[13] = second compound 0.949 µM, first compound 0.00316 µM
[14] = second compound 0.949 µM, first compound 0.01 µM
[15] = second compound 0.949 µM, first compound 0.0316 µM
[16] = second compound 0.949 µM, first compound 0.1 µM
[17] = second compound 3 µM, first compound 0.00316 µM
[18] = second compound 3 µM, first compound 0.01 µM
[19] = second compound 3 µM, first compound 0.0316 µM
[20] = second compound 3 µM, first compound 0.1 µM
[21] = second compound 0.03 µM, first compound 0.316 µM
[22] = second compound 0.03 µM, first compound 1 µM
[23] = second compound 0.0949 µM, first compound 0.316 µM
[24] = second compound 0.0949 µM, first compound 1 µM
[25] = second compound 0.3 µM, first compound 0.316 µM
[26] = second compound 0.3 µM, first compound 1 µM
[27] = second compound 0.949 µM, first compound 0.316 µM
[28] = second compound 0.949 µM, first compound 1 µM
[29] = second compound 3 µM, first compound 0.316 µM
[30] = second compound 3 µM, first compound 1 µM
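Also: spheroids exposed to compounds for seven days.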
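For viability, T/C in this document: 100% = DMSO vehicle control wells.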

Cn1ncnc1[C@H]1c2n[nH]c(=O)c3cc(F)cc(c23)N[C@@H]1c1ccc(F)cc1 + CCN1C(C(=O)NC23CCC(C(=O)O)(CC2)CC3)C(c2cccc(Cl)c2F)C2(C(=O)Nc3cc(Cl)ccc32)C12CCCCC2
54.2 nM: IC50 (second compound 0.0949 µM)
inactive: viability, T/C (second compound 0.03 µM, first compound 0.000316 µM) 88.7% | viability, T/C (second compound 0.03 µM, first compound 0.001 µM) 107% | viability, T/C [1] 91.6% | viability, T/C [2] 66.9% | viability, T/C [3] 58% | viability, T/C [4] 35.5% | viability, T/C (second compound 0.0949 µM, first compound 0.000316 µM) 91% | viability, T/C (second compound 0.0949 µM, first compound 0.001 µM) 101% | viability, T/C [5] 93.3% | viability, T/C [6] 76.2% | viability, T/C [7] 57% | viability, T/C [8] 43.1% | viability, T/C (second compound 0.3 µM, first compound 0.000316 µM) 80.5% | viability, T/C (second compound 0.3 µM, first compound 0.001 µM) 90.8% | viability, T/C [9] 88% | viability, T/C [10] 60% | viability, T/C [11] 49.2% | viability, T/C [12] 35.2% | viability, T/C (second compound 0.949 µM, first compound 0.000316 µM) 80.2% | viability, T/C (second compound 0.949 µM, first compound 0.001 µM) 72.6% | viability, T/C [13] 63.1% | viability, T/C [14] 60.5% | viability, T/C [15] 47.7% | viability, T/C [16] 35.3% | viability, T/C (second compound 3 µM, first compound 0.000316 µM) 43.9% | viability, T/C (second compound 3 µM, first compound 0.001 µM) 40.2% | viability, T/C [17] 41.8% | viability, T/C [18] 38.4% | viability, T/C [19] 40.2% | viability, T/C [20] 31.6%
< 0.316 nM: IC50 (second compound 3 µM)
37.8 nM: IC50 (second compound 0.03 µM)
23.5 nM: IC50 (second compound 0.949 µM)
21 nM: IC50 (second compound 0.3 µM)

O=C(c1cc(Cc2n[nH]c(=O)c3ccccc23)ccc1F)N1CCN(C(=O)C2CC2)CC1 + CCN1C(C(=O)NC23CCC(C(=O)O)(CC2)CC3)C(c2cccc(Cl)c2F)C2(C(=O)Nc3cc(Cl)ccc32)C12CCCCC2
< 31.6 nM: IC50 (second compound 3 µM)
4710 nM: IC50 (second compound 0.03 µM)
5140 nM: IC50 (second compound 0.3 µM)
inactive: viability, T/C [3] 80.5% | viability, T/C [4] 118% | viability, T/C [21] 116% | viability, T/C [22] 92.7% | viability, T/C (second compound 0.03 µM, first compound 3.16 µM) 67.7% | viability, T/C (second compound 0.03 µM, first compound 10 µM) 17.6% | viability, T/C [7] 98.8% | viability, T/C [8] 116% | viability, T/C [23] 107% | viability, T/C [24] 90.2% | viability, T/C (second compound 0.0949 µM, first compound 3.16 µM) 79.5% | viability, T/C (second compound 0.0949 µM, first compound 10 µM) 22.9% | viability, T/C [11] 93.3% | viability, T/C [12] 97.8% | viability, T/C [25] 89.9% | viability, T/C [26] 98.1% | viability, T/C (second compound 0.3 µM, first compound 3.16 µM) 69.5% | viability, T/C (second compound 0.3 µM, first compound 10 µM) 23.6% | viability, T/C [15] 72% | viability, T/C [16] 81.1% | viability, T/C [27] 76% | viability, T/C [28] 77.1% | viability, T/C (second compound 0.949 µM, first compound 3.16 µM) 66.8% | viability, T/C (second compound 0.949 µM, first compound 10 µM) 25.3% | viability, T/C [19] 45.1% | viability, T/C [20] 54.7% | viability, T/C [29] 42.6% | viability, T/C [30] 47.8% | viability, T/C (second compound 3 µM, first compound 3.16 µM) 47.2% | viability, T/C (second compound 3 µM, first compound 10 µM) 23.5%
5090 nM: IC50 (second compound 0.949 µM)
5650 nM: IC50 (second compound 0.0949 µM)

O=C(c1ccc(F)c(F)c1Nc1ccc(I)cc1F)N1CC(O)([C@@H]2CCCCN2)C1 + CCN1C(C(=O)NC23CCC(C(=O)O)(CC2)CC3)C(c2cccc(Cl)c2F)C2(C(=O)Nc3cc(Cl)ccc32)C12CCCCC2
132 nM: IC50 (second compound 0.3 µM)
127 nM: IC50 (second compound 0.03 µM)
148 nM: IC50 (second compound 0.0949 µM)
55.3 nM: IC50 (second compound 0.949 µM)
inactive: viability, T/C [1] 100% | viability, T/C [2] 74.2% | viability, T/C [3] 63.5% | viability, T/C [4] 62% | viability, T/C [21] 39.4% | viability, T/C [22] 18.7% | viability, T/C [5] 89.4% | viability, T/C [6] 89.3% | viability, T/C [7] 66.5% | viability, T/C [8] 57.1% | viability, T/C [23] 39.1% | viability, T/C [24] 17.5% | viability, T/C [9] 83.5% | viability, T/C [10] 80.6% | viability, T/C [11] 65.7% | viability, T/C [12] 55.2% | viability, T/C [25] 36.8% | viability, T/C [26] 18.1% | viability, T/C [13] 67.7% | viability, T/C [14] 53.4% | viability, T/C [15] 54% | viability, T/C [16] 48.8% | viability, T/C [27] 33.9% | viability, T/C [28] 17.5% | viability, T/C [17] 42.7% | viability, T/C [18] 35.9% | viability, T/C [19] 31.4% | viability, T/C [20] 35.4% | viability, T/C [29] 22.2% | viability, T/C [30] 14.7%
< 3.16 nM: IC50 (second compound 3 µM)
